Measured values from patent US7572923B2, “Indirubin derivatives having anticancer property against human cancer cell line” (Anygen Co., Ltd., priority 2004, dated 2009).

Assays:
[1] = test system: human leukemia cell line (HL-60); experiment: Inhibition of cancer cell line proliferation, HL-60; format: cell-based; conditions: HL-60, 96 h, HL60, 3˜4 days incubation, absorbance at 515 nm
Method: (§1) For measuring the proliferation inhibition by indirubin compound, the method disclosed in K. Likhitwitayawuid et al. Journal. Nat. Prod. […] Followings are simple description of this method. The cancer cell line is diluted into 5×10^4 cfu/ml. Then, various concentrations of test compounds are added to 96 well microtiter plate containing diluted cell line. After incubating test plate for 3˜4 days at 37° C., the test plate is dried and Tris-base is added. Then, using ELISA plate detector, the absorbance at 515 nm is measured. IC50 is measured by non-linear regression method.

RK3E-Ras cells [2] = experiment: Annexin-V-FLUOS/propidium iodide double staining assay for apoptosis; format: cell-based, rat; conditions: 1 μM, 24 hours
Method: Annexin-V-FLUOS/propidium iodide double staining assay is a sensitive method for measuring apoptosis in cell level by detecting exposed phosphatidyl serine in apoptotic cell membrane.
RK3E-Ras cell is seeding in 6×10^5 level on cover side. Indirubin derivatives 011, 012 and 030 are treated in 1 μM concentration for 24 hours. As a control, cells without treating any compound are employed. After 24 hours, cells are annexin-V-FLUOS/propidium iodide double stained using annexin-V-FLUOS staining kit. […] It is confirmed that apoptosis of cells treated with indirubin derivatives 011, 012 and 030 is processed.

human cancer cell line = experiment: Inhibition of cancer cell line proliferation, overall conclusion; format: cell-based; conditions: conclusion from Table 2
Method: as §1

RK3E-ras solid tumor [3] = experiment: Histological appearance of tumor lesion, H&E stain; format: in vivo, Sprague Dawley rat; conditions: rat tumor tissue
Method: (§2) 1×10^7 of RK3E-ras cells is injected to Sprague Dawley rat to induce solid tumor for 5 days and experimental groups of animals are employed by size and volume of tumor in these animals. 100 mM of indirubin derivative is injected to experimental group of animals 5 times in every other day.
To observe histological appearance of tumor lesion after indirubin derivatives 011, 012 and 030 treatment, tumor tissue is immobilized in para-formaldehyde solution and is treated with paraffin. Then, H&E stain is carried out. […] From this experiment, indirubin derivatives of the present invention induce apoptosis of tumor, which results in the suppression of tumor formation in tissue level. FIG. 8 is photography showing the appearance of tumor lesion after treating indirubin derivatives 011, 012 and 030 of present invention.

[4] = test system: human lung cancer cell line (A549); experiment: Inhibition of cancer cell line proliferation, A549; format: cell-based; conditions: 96 h, 3˜4 days incubation, absorbance at 515 nm
Method: as §1

RK3E-ras solid tumor [5] = experiment: Tumor suppression in RK3E-ras tumor induced rats; format: in vivo; conditions: Sprague Dawley rat; for size and volume of tumor: 100 mM injected 5 times in every other day
Method: RK3E cell is one of rat kidney cell and it is immortalized by EA1 oncogene. […] Inventors prepares stable RK3E-k-ras cell line by infection of retroviral expression vector to express mutant k-ras of oncogene. Prepared cell line is intramuscularly infected to Sprague Dawley rat to induce tumor. […] Tumor suppression effect by indirubin derivatives 011, 012 and 030 is measured through tumor induced rats.
as §2
Tumor is measured by vernier caliper and the volume of tumor is calculated by Carlsso calculation method {V=1/2(a.b^2), a: long axis, b: short axis}.

[6] = test system: leukemia cell line (HL-60); experiment: Differentiation inducing effect, NBT reduction method; format: cell-based, human; conditions: 3 days
Method: For measuring the differentiation inducing effect to acute bone merrow leukemia cell line (HL-60) by indirubin AGM compound, NBT (nitroblue tetrazolium) reduction reaction method is employed. The leukemia cell line is diluted into 2×10^5 cfu/ml. […] Incubated cells are washed with phosphate buffered saline (PBS). Then, they are further incubated in PBS solution containing 0.1% NBT and 200 ng/ml of PMA (phorbol 12-myristate 13-acetate) for 30 minutes at 37° C. Incubated cells are centrifuged and collected cells are washed with PBS solution. Using cell number counter, differentiated cells forming nitroblue formazan among total cells are counted.

[7] = test system: human stomach cancer cell line (SNU-638); experiment: Inhibition of cancer cell line proliferation, SNU-638; format: cell-based; conditions: 96 h, 3˜4 days incubation, absorbance at 515 nm
Method: as §1

RK3E-Ras cells [8] = experiment: DNA fragmentation, agarose gel electrophoresis; format: cell-based, rat; conditions: 10 μM
Method: We test if the decline of cell viability by indirubin derivative 011 relates to apoptosis of cell or not. Genomic DNA from cells treated with indirubin derivative 011 is isolated and fragmented. RK3E-Ras cell, 6×10^5/well is seeding on 6 well plate. After incubation of cells for 12˜24 hours, 10 μM of indirubin derivative 011 is treated with cells. As a control, cells without treating any compound or cells treating DMSO in same concentration are employed.

RK3E-Ras cells [9] = experiment: Cell viability by MTT assay; format: cell-based, rat; conditions: 1, 10, 20, 40 μM, 6, 12, 24, 48 hours
Method: To measure the influence to cell viability by indirubin derivative, RK3E-Ras cell, 1×10^5/well is seeding on 24 well plate. After incubation of cells for 12˜24 hours, indirubin derivative 011 in various concentration (1 μM, 10 μM, 20 μM, 40 μM) are treated for 6, 12, 24, 48 hours respectively. As control, cells without treating any compound are employed. […] FIG. 1 show the decline of cell viability after treatment of indirubin derivative 011.
According to the same condition in Example 3, other indirubin derivative 012, 030 are treated to measure the influence to cell viability.

[10] = test system: human colon cancer cell line (Col2); experiment: Inhibition of cancer cell line proliferation, Col2; format: cell-based; conditions: 96 h, 3˜4 days incubation, absorbance at 515 nm
Method: as §1

[11] = test system: human leukemia cell line (HL-60); experiment: Differentiation with low concentration 1,25-(OH)2D3 or ATRA, NBT reduction method; format: cell-based
Method: For measuring the differentiation inducing effect to acute bone merrow leukemia cell line (HL-60) by indirubin AGM compound, NBT (nitroblue tetrazolium) reduction reaction method is employed. The leukemia cell line is diluted into 2×10^5 cfu/ml. After treating 20 μM and 1 μM concentrations of test compounds, test plate is incubated for 3 days at 37° C. in 5% CO2 incubator. Incubated cells are washed with phosphate buffered saline (PBS). Then, they are further incubated in PBS solution containing 0.1% NBT and 200 ng/ml of PMA (phorbol 12-myristate 13-acetate) for 30 minutes at 37° C. Incubated cells are centrifuged and collected cells are washed with PBS solution. Using cell number counter, differentiated cells forming nitroblue formazan among total cells are counted.
Next, we test if AGM compound of present invention can synergically induce the differentiation of acute bone merrow leukemia cell line when it is treated with low concentration of 1,25-dihydroxyvitamin D3[1,25-(OH)2D3] or all-trans retinoic acid (ATRA) known as differentiation inducing agent. […] […] As a positive control, conventional differentiation inducing agent is used.

[12] = test system: human abdominal cavity cancer cell line (HT 1080); experiment: Inhibition of cancer cell line proliferation, HT 1080; format: cell-based; conditions: HT-1080, 96 h, HT108, 3˜4 days incubation, absorbance at 515 nm
Method: as §1

[13] = test system: human cell line (HT 1080); experiment: as above; format: cell-based; conditions: HT-1080, 96 h, read-out: IC50 HT108
Method: as §1

SMILES | IC50 [1] [µM] | annexin-V green fluorescence staining versus control (RK3E-Ras cells [2]) | inhibitor against proliferation of human cancer cell line (human cancer cell line) | histological appearance of tumor lesion (RK3E-ras solid tumor [3]) | IC50 [4] [µM] | size and volume of tumor (RK3E-ras solid tumor [5]) | IC50 [7] [µM] | cell viability according to increase of compound concentration (RK3E-Ras cells [9]) | IC50 [10] [µM] | other results
O=C1Nc2ccc([N+](=O)[O-])cc2C1=C1Nc2ccccc2C1=NO [AGM011, 5′-nitro-1H,1′H-[2,3′] biindolylidene-3,2′-dione 3-oxime] | 9.23 | far more stained by green fluorescence than cells of control group | effective inhibitor | necrosis or calcification of tumor is observed | 5.43 | decrease | 1.21 | rapidly declined | 25.5 | progress of apoptosis (RK3E-Ras cells [2]; FIG. 4): fast processed; suppression against tumor (tumor volume) (RK3E-ras solid tumor [5]; tumor volume by vernier caliper, V=1/2(a.b^2)): 80%; % of Differentiation ([6]; 0.2 μM compound): 24.02 ± 0.85%; DNA fragmentation (RK3E-Ras cells [8]; 12 hours): some DNA fragmentation occurs; DNA fragmentation (RK3E-Ras cells [8]; 24 hours): clear DNA fragmentation is detected; % of Differentiation, 1,25-(OH)2D3 ([11]; 0.2 μM compound with 5 nM of 1,25-(OH)2D3): 31.79 ± 0.87%; % of Differentiation, all-trans RA ([11]; 0.2 μM compound with 50 nM of ATRA): 34.87 ± 0.74%; IC50 [12]: 5.87 µM
O=C1Nc2ccc(F)cc2C1=C1Nc2ccccc2C1=NO [AGM012, 5′-fluoro-1H,1′H-[2,3′] biindolylidene-3,2′-dione 3-oxime] | 89.3 | far more stained by green fluorescence than cells of control group | effective inhibitor | necrosis or calcification of tumor is observed | 13.2 | decrease | 2.06 | rapid decline of cell viability | 64.2 | % of Differentiation ([6]; 1 μM compound): 32.71 ± 1.73%; % of Differentiation, 1,25-(OH)2D3 ([11]; 1 μM compound with 5 nM of 1,25-(OH)2D3): 24.29 ± 1.34%; % of Differentiation, all-trans RA ([11]; 1 μM compound with 50 nM of ATRA): 54.81 ± 1.65%; IC50 [13]: 3.41 µM
CC(C)(C)C(=O)Nc1ccc2c(c1)C(=C1Nc3ccccc3C1=NO)C(=O)N2 [AGM030, 5-NH-trimethylacetyl-indirubin-3-oxime] | – | far more stained by green fluorescence than cells of control group | – | necrosis or calcification of tumor is observed | – | decrease | – | rapid decline of cell viability | – | –
